Source: PMC2263054, “Functional evolution of the vitamin D and pregnane X receptors” (BMC Evolutionary Biology, 2007)
Like-named read-outs stand apart in the source and are kept apart here.

Tests used:
Sea lamprey VDR = biological target: T1, Sea lamprey VDR (Petromyzon marinus, UniProt Q7ZZY9); format: cell-based; conditions: for Sea lamprey VDR EC50 ± SD: unit not given, also cells saying No effect; for Effect on sea lamprey VDR: screening for activators, at least three concentrations of each drug
T1 sequence (Q7ZZY9 92-406): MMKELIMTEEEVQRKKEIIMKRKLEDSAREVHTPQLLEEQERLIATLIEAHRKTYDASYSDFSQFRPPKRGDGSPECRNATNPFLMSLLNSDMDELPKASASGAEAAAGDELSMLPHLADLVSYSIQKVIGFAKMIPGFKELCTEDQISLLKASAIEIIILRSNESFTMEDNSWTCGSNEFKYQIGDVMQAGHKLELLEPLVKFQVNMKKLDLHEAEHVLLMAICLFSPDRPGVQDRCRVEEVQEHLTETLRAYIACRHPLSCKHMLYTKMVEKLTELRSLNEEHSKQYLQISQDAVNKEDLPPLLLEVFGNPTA

Mouse VDR = biological target: T2, Mouse VDR (Mus musculus, UniProt P48281); experiment: luciferase reporter transactivation assay in HepG2-NTCP cells, full-length mVDR with CYP3A4-PXRE-Luc
T2 sequence (P48281 1-422): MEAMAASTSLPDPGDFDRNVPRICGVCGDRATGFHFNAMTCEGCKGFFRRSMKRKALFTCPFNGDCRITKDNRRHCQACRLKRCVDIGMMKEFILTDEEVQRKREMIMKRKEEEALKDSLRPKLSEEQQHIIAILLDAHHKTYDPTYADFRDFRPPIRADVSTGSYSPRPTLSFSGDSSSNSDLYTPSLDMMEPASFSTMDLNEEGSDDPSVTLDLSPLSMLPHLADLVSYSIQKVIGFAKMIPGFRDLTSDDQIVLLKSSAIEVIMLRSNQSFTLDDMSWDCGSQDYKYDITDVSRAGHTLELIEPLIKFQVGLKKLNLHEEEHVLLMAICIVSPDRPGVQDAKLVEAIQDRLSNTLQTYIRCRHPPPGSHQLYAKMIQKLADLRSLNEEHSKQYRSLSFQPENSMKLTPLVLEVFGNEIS

Human VDR = biological target: T3, Human VDR (Homo sapiens, UniProt P11473); experiment: luciferase reporter transactivation assay in HepG2-NTCP cells, full-length hVDR with CYP3A4-PXRE-Luc
T3 sequence (P11473 1-427): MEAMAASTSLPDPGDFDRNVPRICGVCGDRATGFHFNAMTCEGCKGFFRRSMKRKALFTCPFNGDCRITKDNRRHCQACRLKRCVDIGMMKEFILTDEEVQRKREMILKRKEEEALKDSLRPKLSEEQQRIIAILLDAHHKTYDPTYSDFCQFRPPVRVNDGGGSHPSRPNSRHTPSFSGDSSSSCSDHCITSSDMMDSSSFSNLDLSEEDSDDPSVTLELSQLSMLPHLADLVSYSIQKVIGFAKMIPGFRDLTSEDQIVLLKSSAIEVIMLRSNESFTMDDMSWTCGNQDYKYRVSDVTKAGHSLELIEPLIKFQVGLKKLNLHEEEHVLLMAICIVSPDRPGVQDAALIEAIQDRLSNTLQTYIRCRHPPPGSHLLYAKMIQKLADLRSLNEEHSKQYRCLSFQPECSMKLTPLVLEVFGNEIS

Zebrafish VDR = biological target: T4, Zebrafish VDR (Danio rerio, UniProt Q9PTN2); experiment: luciferase reporter transactivation assay in HepG2-NTCP cells, GAL4/zfVDR LBD chimera with tk-UAS-Luc; format: cell-based; conditions: for Zebrafish VDR EC50 ± SD: unit not given, also cells saying No effect; for Effect on zebrafish VDR: screening for activators, at least three concentrations of each drug; for Zebrafish VDR relative efficacy: relative to maximal reference compound (1 μM calcitriol, efficacy = 1.0)
T4 sequence (Q9PTN2 121-453): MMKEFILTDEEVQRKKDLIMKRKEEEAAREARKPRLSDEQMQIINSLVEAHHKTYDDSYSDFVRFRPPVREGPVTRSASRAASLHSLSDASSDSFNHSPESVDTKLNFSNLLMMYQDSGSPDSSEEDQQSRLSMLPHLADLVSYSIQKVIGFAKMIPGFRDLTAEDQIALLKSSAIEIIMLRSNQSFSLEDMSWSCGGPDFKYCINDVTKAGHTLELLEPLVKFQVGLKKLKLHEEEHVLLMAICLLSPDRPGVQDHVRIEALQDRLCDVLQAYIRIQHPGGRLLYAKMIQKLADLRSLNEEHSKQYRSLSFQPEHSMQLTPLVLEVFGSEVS

Xenopus laevis VDR = biological target: T5, Xenopus laevis VDR (Xenopus laevis, UniProt O13124); experiment: luciferase reporter transactivation assay in HepG2-NTCP cells, GAL4/xlVDR LBD chimera with tk-UAS-Luc; format: cell-based; conditions: for Xenopus VDR EC50 ± SD: unit not given, also cells saying No effect; for Effect on Xenopus laevis VDR: screening for activators, at least three concentrations of each drug; for Xenopus VDR relative efficacy: relative to maximal reference compound (1 μM calcitriol, efficacy = 1.0)
T5 sequence (O13124 90-422): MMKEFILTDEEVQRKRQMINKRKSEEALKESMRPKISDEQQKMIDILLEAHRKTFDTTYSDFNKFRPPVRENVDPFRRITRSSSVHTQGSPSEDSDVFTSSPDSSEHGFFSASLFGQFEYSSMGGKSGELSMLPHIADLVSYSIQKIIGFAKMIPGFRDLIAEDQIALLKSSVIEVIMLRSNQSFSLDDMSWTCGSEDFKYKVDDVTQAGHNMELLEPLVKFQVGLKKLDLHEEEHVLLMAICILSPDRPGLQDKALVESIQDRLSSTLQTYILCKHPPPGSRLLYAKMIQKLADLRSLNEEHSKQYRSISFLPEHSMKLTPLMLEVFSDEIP

[1] = tested on: testosterone 6β-hydroxylation; experiment: testosterone hydroxylation (HPLC) in sea lamprey primary hepatocytes; format: cell-based; conditions: concentration ranges per compound
Description: 100 μL of sample, calibration standard, or quality material standard were pipetted into separate microcentrifuge tubes and mixed with 100 μL of methanol. Samples were vortexed and centrifuged at 13,000 rpm for 4 min. The supernatant was then injected into the HPLC.
The flow rate was 1.2 mL/min and total run time was 25 min.

EROD activity = experiment: EROD assay in sea lamprey primary hepatocytes; conditions: 24–48 hr exposure
[2] = HepG2-NTCP cells, luciferase reporter
[3] = HepG2-NTCP cells, luciferase reporter, unit not given, also cells saying No effect

With `C[C@H](CCC(=O)O)[C@H]1CC[C@H]2[C@@H]3CC[C@@H]4CC(=O)CC[C@]4(C)[C@H]3CC[C@]12C` [3-Ketolithocholic acid] the “Sea lamprey VDR EC50 ± SD” value (Sea lamprey VDR; [2]) was “No effect”, the “Effect on sea lamprey VDR” value (Sea lamprey VDR) was “No effect” and the “Mouse VDR EC50 ± SD” value (Mouse VDR) was 20 ± 0.3 (0.58). The “Human VDR EC50 ± SD” value (Human VDR) was 55 ± 8.1 (0.17), the “Zebrafish VDR EC50 ± SD” value (Zebrafish VDR; [2]) was “No effect” and the “Effect on zebrafish VDR” value (Zebrafish VDR) was “No effect”. For the same compound, the “Xenopus VDR EC50 ± SD” value (Xenopus laevis VDR; [2]) was “No effect”, the “Effect on Xenopus laevis VDR” value (Xenopus laevis VDR) was “No effect” and the “Ciona VDR/PXR EC50 ± SD” value (Ciona VDR/PXR) was “No effect”.
With `C[C@H](CCCO)[C@H]1CC[C@H]2[C@@H]3[C@H](O)C[C@H]4CC(=O)CC[C@]4(C)[C@H]3C[C@H](O)[C@]12C` [3-keto-5α-petromyzonol] the “effect on testosterone 6β-hydroxylation” value [1] was “None of these compounds produced significant increases in testosterone 6β-hydroxylation”.
In the case of `C[C@H](CCC(=O)NCC(=O)O)[C@H]1CC[C@H]2[C@@H]3CC[C@@H]4C[C@H](O)CC[C@]4(C)[C@H]3CC[C@]12C` [Glycolithocholic acid], the “Sea lamprey VDR EC50 ± SD” value (Sea lamprey VDR; [2]) is reported as “No effect”, the “Mouse VDR relative efficacy” value (Mouse VDR) is reported as 0.28 and the “Human VDR EC50 ± SD” value (Human VDR; [3]) is reported as “No effect”. The “Zebrafish VDR EC50 ± SD” value (Zebrafish VDR; [2]) was “No effect”, the “Xenopus VDR EC50 ± SD” value (Xenopus laevis VDR; [2]) was “No effect” and the “Ciona VDR/PXR EC50 ± SD” value (Ciona VDR/PXR; [3]) was “No effect”.
`CC(CCCOS(=O)(=O)O)[C@H]1CCC2C3C(C[C@H](O)[C@@]21C)[C@@]1(C)CC[C@@H](O)C[C@@H]1C[C@H]3O` (stereo partly drawn) [5α-Petromyzonol 24-sulfate] was tested, and the “Sea lamprey VDR EC50 ± SD” value (Sea lamprey VDR; [2]) was “No effect”, the “effect on testosterone 6β-hydroxylation” value [1] was “None of these compounds produced significant increases in testosterone 6β-hydroxylation” and the “Mouse VDR EC50 ± SD” value (Mouse VDR; [3]) was “No effect”. For the same compound, the “Human VDR EC50 ± SD” value (Human VDR; [3]) was “No effect”, the “effect on EROD activity” value (EROD activity) was “did not alter EROD activity” and the “Zebrafish VDR EC50 ± SD” value (Zebrafish VDR; [2]) was “No effect”. The “Xenopus VDR EC50 ± SD” value (Xenopus laevis VDR; [2]) was “No effect” and the “Ciona VDR/PXR EC50 ± SD” value (Ciona VDR/PXR; [3]) was “No effect”.
For `O=Cc1c2[nH]c3ccccc3c2cc2[nH]c3ccccc3c12` [6-Formylindolo-[3,2-b]-carbazole], the “Sea lamprey VDR relative efficacy” value (Sea lamprey VDR) was 0.25, the “Mouse VDR relative efficacy” value (Mouse VDR; relative to maximal reference compound (0.5 μM calcitriol, efficacy = 1.0)) was about 0.08 and the “Human VDR relative efficacy” value (Human VDR; relative to maximal reference compound (1 μM calcitriol, efficacy = 1.0)) was about 0.12. For the same compound, the “Zebrafish VDR relative efficacy” value (Zebrafish VDR) was under 0.03, the “Xenopus VDR relative efficacy” value (Xenopus laevis VDR) was about 0.10 and the “Ciona VDR/PXR relative efficacy” value (Ciona VDR/PXR; relative to maximal reference compound (20 μM 6-formylindolo-[3,2-b]-carbazole, efficacy = 1.0)) was 1.0. The “activation of ciVDR/PXR” value (Ciona VDR/PXR; unpublished data of the authors) was “activated”.
`CC(=O)[C@H]1CC[C@H]2[C@@H]3CC=C4C[C@@H](O)CC[C@]4(C)[C@H]3CC[C@]12C` [Pregnenolone] was tested, and the “Effect on sea lamprey VDR” value (Sea lamprey VDR) was “No effect”, the “effect on testosterone 6β-hydroxylation” value [1] was “None of these compounds produced significant increases in testosterone 6β-hydroxylation” and the “Effect on zebrafish VDR” value (Zebrafish VDR) was “No effect”. For the same compound, the “Effect on Xenopus laevis VDR” value (Xenopus laevis VDR) was “No effect”.
In the case of `C=C1CC[C@H](O)C/C1=C/C=C1\CCC[C@]2(C)[C@@H]([C@H](C)CCCC(C)(C)O)CC[C@@H]12` [25-Hydroxyvitamin D3], the “Sea lamprey VDR relative efficacy” value (Sea lamprey VDR) is reported as 0.63, the EC50 (Sea lamprey VDR; HepG2-NTCP cells, luciferase reporter, read-out: Sea lamprey VDR EC50 ± SD) is reported as 19 ± 2.1 µM and the “effect on testosterone 6β-hydroxylation” value [1] is reported as “None of these compounds produced significant increases in testosterone 6β-hydroxylation”. The “Mouse VDR relative efficacy” value (Mouse VDR) was 2.62, the EC50 (Mouse VDR; read-out: Mouse VDR EC50 ± SD, HepG2-NTCP cells, luciferase reporter) was 0.6 ± 0.1 µM and the “Human VDR relative efficacy” value (Human VDR) was 1.22. For the same compound, the EC50 (Human VDR; read-out: Human VDR EC50 ± SD, HepG2-NTCP cells, luciferase reporter, unit M) was 1.5 ± 0.2 µM, the EC50 (Zebrafish VDR; HepG2-NTCP cells, luciferase reporter, read-out: Zebrafish VDR EC50 ± SD) was 7.3 ± 0.8 µM and the “Zebrafish VDR relative efficacy” value (Zebrafish VDR) was 0.91. The EC50 (Xenopus laevis VDR; HepG2-NTCP cells, luciferase reporter, read-out: Xenopus VDR EC50 ± SD) was 11 ± 0.8 µM, the “Xenopus VDR relative efficacy” value (Xenopus laevis VDR) was 0.67 and the “Ciona VDR/PXR EC50 ± SD” value (Ciona VDR/PXR; [3]) was “No effect”.
